Values after ≈ are worked out from the molar mass of the structure shown.
How the values were obtained:
[1] = at 20° C.; cited from earlier work
[2] = Dissolution/melting temperature in surfactants by differential scanning calorimetry (DSC); conditions: for effect of surfactants on dissolution/melting temperature: cationic, nonionic and anionic surfactants tested, compared to absence of a surfactant
[3] = Dissolution in surfactants at 20% w/v on heating in a water bath, then cooling to room temperature; conditions: for Dissolution temp.: temperature at which the mixture cleared
[4] = 20% w/v in AGM-550, cooled to 20-25° C. after 45 ° C.
[5] = 20% w/v in Ethomeen T/15, cooled to 20-25° C. after 50 ° C.
[6] = 20% w/v in Ethomeen T/15 at 45 ° C.
[7] = 20% w/v in Ethomeen T/15 at 50 ° C.
[8] = 20% w/v in coco quaternary amine 2 EO (Ethoquad C/12)
[9] = 20% w/v in cocoamine 2EO (Ethomeen C/12)

CCC(Oc1ccc(F)c(C(F)(F)F)c1)C(=O)NCc1ccccc1 (stereo not drawn) [beflubutamid]
water solubility (Solub.) [1]: 3.3 µg/mL (≈ 9.29 µM)

CC(=O)O.CC1CN(C2CCCCCCCCCCC2)CC(C)O1 (stereo not drawn) [dedemorph acetate]
water solubility (Solub.) [1]: 736 µg/mL

COP(=O)(OC)O/C(=C\Cl)c1ccc(Cl)cc1Cl [dimethylvinphos]
water solubility (Solub.) [1]: 0.13 µg/mL (≈ 0.392 µM)

CCC(C)c1cc([N+](=O)[O-])cc([N+](=O)[O-])c1OC(=O)OC(C)C (stereo not drawn) [dinobuton]
water solubility (Solub.) [1]: 0.1 µg/mL (≈ 0.306 µM)

CC1CN(C2CCCCCCCCCCC2)CC(C)O1 (stereo not drawn) [dodemorph]
water solubility (Solub.) [1]: <100 µg/mL

CCOCOc1ccc(C(=O)Nc2cccc(Cl)c2Cl)cc1 [etobenzanid]
water solubility (Solub.) [1]: 0.9 µg/mL (≈ 2.65 µM)

CC(Oc1ccc(Cl)cc1Cl)C(=O)NC(C)(C#N)C(C)C (stereo not drawn) [fenoxanil]
water solubility (Solub.) [1]: 30.7 µg/mL (≈ 93.2 µM)

CCOC(=O)[C@@H](C)Oc1ccc(Oc2nc3ccc(Cl)cc3o2)cc1 [fenoxaprop-P-ethyl]
water solubility (Solub.) [1]: 0.7 µg/mL (≈ 1.93 µM)

CCOC(=O)C(C)Oc1ccc(Oc2nc3ccc(Cl)cc3o2)cc1 (stereo not drawn) [fenoxaprop-ethyl]
water solubility (Solub.) [1]: 0.9 µg/mL (≈ 2.49 µM)

CCOC(=O)NCCOc1ccc(Oc2ccccc2)cc1 [fenoxycarb]
water solubility (Solub.) [1]: 7.9 µg/mL (≈ 26.2 µM)

CCCCCOC(=O)COc1cc(N2C(=O)C3=C(CCCC3)C2=O)c(F)cc1Cl [flumiclorac-pentyl]
water solubility (Solub.) [1]: 0.2 µg/mL (≈ 0.472 µM)

CCOC(=O)C(C)Oc1ccc(Oc2ncc(C(F)(F)F)cc2Cl)cc1 (stereo not drawn) [haloxyfop-ethyl]
water solubility (Solub.) [1]: 0.6 µg/mL (≈ 1.54 µM)

C=CCOC(Cn1ccnc1)c1ccc(Cl)cc1Cl (stereo not drawn) [imazalil]
water solubility (Solub.) [1]: 0.1 µg/mL (≈ 0.336 µM)

C#CCOc1ccc(CCNC(=O)C(OCC#C)c2ccc(Cl)cc2)cc1OC (stereo not drawn) [mandipropamid]
water solubility (Solub.) [1]: 4.2 µg/mL (≈ 10.2 µM)

CCOC(=O)C1=NN(c2ccc(Cl)cc2Cl)C(C)(C(=O)OCC)C1 (stereo not drawn) [mefenpyr-diethyl]
water solubility (Solub.) [1]: 20 µg/mL (≈ 53.6 µM)

CO/C=C(/C(=O)OC)c1ccccc1COc1cccc(C(F)(F)F)n1 [picoxystrobin]
water solubility (Solub.) [1]: 3.1 µg/mL (≈ 8.44 µM)

CCOP(=S)(OCC)Oc1ccc(=O)n(-c2ccccc2)n1 [pyridaphenthion]
water solubility (Solub.) [1]: 55.2 µg/mL (≈ 162 µM)

CCOC(=O)[C@@H](C)Oc1ccc(Oc2cnc3cc(Cl)ccc3n2)cc1 [quizalofop-P-ethyl]
melting/dissolution point ([2]; 40 wt % in C6-9 amidopropyl dimethylamine surfactant (ARMEEN APA 9), FIG. 16): 63 °C | melting/dissolution point ([2]; 65 wt % in C6-9 amidopropyl dimethylamine surfactant (ARMEEN APA 9), FIG. 16): 69 °C | effect of surfactants on dissolution/melting temperature [2]: reduced | Observation at room temp. [3, 4]: Dissolved | Dissolution temp. ([3]; 20% w/v in AGM-550): 45 °C | Observation ([3]; 20% w/v in AGM-550 at 45 ° C.): Dissolved | Observation at room temp. ([3]; 20% w/v in Armeen APA 9, cooled to 20-25° C. after 50 ° C.): Dissolved | Dissolution temp. ([3]; 20% w/v in Armeen APA 9): 50 °C | Observation ([3]; 20% w/v in Armeen APA 9 at 45 ° C.): Not Dissolved | Observation ([3]; 20% w/v in Armeen APA 9 at 50 ° C.): Dissolved | Observation at room temp. ([3]; 20% w/v in Ethomeen C/12, cooled to 20-25° C. after 55 ° C.): Dissolved | Observation at room temp. ([3]; 20% w/v in Ethomeen C/12, cooled to 20-25° C. after 65 ° C.): Dissolved | Observation ([3]; 20% w/v in Ethomeen C/12 at 50 ° C.): Not Dissolved | Observation ([3]; 20% w/v in Ethomeen C/12 at 55 ° C.): Dissolved | Observation ([3]; 20% w/v in Ethomeen C/12 at 65 ° C.): Dissolved | Observation at room temp. [3, 5]: Dissolved | Dissolution temp. ([3]; 20% w/v in Ethomeen T/15): 50 °C | Observation [3, 6]: Not Dissolved | Observation [3, 7]: Dissolved | Observation at room temp. ([3]; 20% w/v in Ethoquad C/12, cooled to 20-25° C. after 65 ° C.): Dissolved | Observation ([3]; 20% w/v in Ethoquad C/12 at 55 ° C.): Not Dissolved | Observation ([3]; 20% w/v in Ethoquad C/12 at 65 ° C.): Dissolved | Observation ([3]; 20% w/v in alkylamine oxide at 60 ° C.): Dissolved | Observation at room temp. ([3]; 20% w/v in alkylamine oxide, cooled to 20-25° C. after 60 ° C.): Dissolved | Dissolution temp. ([3]; 20% w/v in alkylamine oxide): 60 °C | Dissolution temp. [3, 8]: 65 °C | Dissolution temp. [3, 9]: 55 °C

C=CCNC(=O)c1c([Si](C)(C)C)sc(C)c1C [silithiofam]
water solubility (Solub.) [1]: 39.9 µg/mL (≈ 149 µM)

CC(C)(C)C(O)(CCc1ccc(Cl)cc1)Cn1cncn1 (stereo not drawn) [tebuconazole]
melting/dissolution point ([2]; 40 wt % in ethoxylated cocoamine (2EO) surfactant, FIG. 14): 71 °C | melting/dissolution point ([2]; 65 wt % in ethoxylated cocoamine (2EO) surfactant, FIG. 14): 91 °C | dissolution/melting point, rank among surfactants tested ([2]; amidopropylamine surfactant): lowest | effect of surfactants on dissolution/melting temperature [2]: reduced | Observation at room temp. [3, 4]: Dissolved | Dissolution temp. ([3]; 20% w/v in AGM-550): 45 °C | Observation ([3]; 20% w/v in AGM-550 at 45 ° C.): Dissolved | Observation at room temp. ([3]; 20% w/v in Armeen APA 9, cooled to 20-25° C. after 40 ° C.): Dissolved | Dissolution temp. ([3]; 20% w/v in Armeen APA 9): 40 °C | Observation ([3]; 20% w/v in Armeen APA 9 at 40 ° C.): Dissolved | Observation at room temp. ([3]; 20% w/v in Ethomeen C/12, cooled to 20-25° C. after 45 ° C.): Dissolved | Observation ([3]; 20% w/v in Ethomeen C/12 at 45 ° C.): Dissolved | Observation at room temp. [3, 5]: Dissolved | Dissolution temp. ([3]; 20% w/v in Ethomeen T/15): 50 °C | Observation [3, 6]: Not Dissolved | Observation [3, 7]: Dissolved | Observation at room temp. ([3]; 20% w/v in Ethoquad C/12, cooled to 20-25° C. after 45 ° C.): Dissolved | Observation ([3]; 20% w/v in Ethoquad C/12 at 45 ° C.): Dissolved | Observation at room temp. ([3]; 20% w/v in Surfonic L24-9, cooled to 20-25° C. after 50 ° C.): Dissolved | Dissolution temp. ([3]; 20% w/v in Surfonic L24-9): 50 °C | Observation ([3]; 20% w/v in Surfonic L24-9 at 45 ° C.): Not Dissolved | Observation ([3]; 20% w/v in Surfonic L24-9 at 50 ° C.): Dissolved | Observation ([3]; 20% w/v in alkylamine oxide at 45 ° C.): Dissolved | Observation at room temp. ([3]; 20% w/v in alkylamine oxide, cooled to 20-25° C. after 45 ° C.): Dissolved | Dissolution temp. ([3]; 20% w/v in alkylamine oxide): 45 °C | Dissolution temp. [3, 8]: 45 °C | Dissolution temp. [3, 9]: 45 °C

COP(=S)(OC)Oc1c(Cl)cc(C)cc1Cl [tolclofos-methyl]
water solubility (Solub.) [1]: 1.1 µg/mL (≈ 3.65 µM)

Cc1ccc(N(SC(F)(Cl)Cl)S(=O)(=O)N(C)C)cc1 [tolyfluanid]
water solubility (Solub.) [1]: 0.9 µg/mL (≈ 2.59 µM)

CC(C)(C)C(=O)C(Oc1ccc(Cl)cc1)n1cncn1 (stereo not drawn) [triadimefon]
water solubility (Solub.) [1]: 64 µg/mL (≈ 218 µM)

anilofos
water solubility (Solub.) [1]: 13.6 µg/mL

beta-cypermemethrin
water solubility (Solub.) [1]: 51.5 µg/mL

butafenamid
water solubility (Solub.) [1]: 3.3 µg/mL

From patent US11700853B2, “Plant health compositions comprising a water-soluble pesticide and a water-insoluble agrochemical” (priority 2010, dated 2023)
